This is an account of results in patent publication US20180179210A1, “Inhibitors of the TEC Kinase Enzyme Family” (Pharmascience Inc., priority 2015, published 2018).

Assay [1] addresses T1, human BTK kinase (hBTK) (Homo sapiens, UniProt Q06187).
T1 construct: purchased Eurofins Pharma Discovery Services UK Limited (contract assay, Kinase Profiler)
Nature of the assay: BTK kinase inhibition assay (Kinase Profiler radiometric protein kinase assay, Eurofins). As to conditions: radiometric [γ-33P-ATP] assay, 40 minutes at room temperature, 250 μM substrate. Type of assay: biochemical. The method, then:
In vitro potency of selected compound was defined against human BTK kinase (hBTK) using Kinase Profiler radiometric protein kinase assays performed at Eurofins Pharma Discovery Services UK Limited.
hBTK kinase is diluted in buffer and all compounds were prepared to 50× final assay concentration in 100% DMSO. This working stock of the compound was added to the assay well as the first component in the reaction, followed by the remaining components as detailed in the assay protocol listed above. The reaction was initiated by the addition of the MgATP mix. The kinase reaction was performed at room temperature for 40 minutes in presence of 250 μM substrate, 10 mM MgAcetate, [γ-33P-ATP] (specific activity approx. 500 cpm/pmol, concentration as required) and variable test article concentrations. The ATP concentrations in the assays were with 15 μM of the apparent. The reaction was stopped by the addition of 3% phosphoric acid solution. 10 μL of the reaction is then spotted onto a P30 filtermat and washed three times for 5 minutes in 75 mM phosphoric acid and once in methanol prior to drying and scintillation counting. In addition positive control wells contain all components of the reaction, except the compound of interest; however, DMSO (at a final concentration of 2%) were included in these wells to control for solvent effects as well as blank wells contain all components of the reaction, with a reference inhibitor replacing the compound of interest. This abolishes kinase activity and establishes the base-line (0% kinase activity remaining).

Assay [2] concerns the target BTK (Homo sapiens, UniProt Q06187). The experiment in a line: BTK enzyme off-rate determination (dilution kinetic experiments). As to conditions: 10-30 nM compound pre-incubated with 7 nM enzyme, 1000 uM ATP, 1 h, diluted 250×, monitored 8 h. In kind it is biochemical. The method, then: 10-30 nM compound was pre-incubated with 7 nM enzyme in the presence of 1000 uM ATP for 1 h. The [I]-[E] complex was diluted 250× into an assay buffer with 1000 uM ATP and 2uM substrate peptide. Enzyme activity in the diluted samples was monitored in real time assay over period of 8 h. The progress curves were fit with time dependent equation to determine apparent Kobs and residence time of the compound. […] Consistent with covalent inhibition of BTK.

The subject of assay [3] is Splenocytes. The experiment in a line: Splenic cell proliferation assay (anti-IgM stimulated). In kind it is cell-based. As to conditions: Splenocyte; CD1 mouse splenocytes, 1 h pre-treatment, 2.5 ug/ml anti-IgM F(ab')2 for 72 h, Cell Titer-Glo; read-out: EC50 (inhibition of splenic cell proliferation). The method, then: Proliferation of splenocytes in response to anti-IgM can be blocked by inhibition of Btk.
Splenocytes were obtained from 6 week old male CD1 mice (Charles River Laboratories Inc.). Mouse spleens were manually disrupted in PBS and filtered using a 70 um cell strainer followed by ammonium chloride red blood cell lysis. Cells were washed, resuspended in Splenocyte Medium (HyClone RPMI supplemented with 10% heat-inactivated FBS, 0.5× non-essential amino acids, 10 mM HEPES, 50 uM beta mercaptoethanol) and incubated at 37° C., 5% CO2 for 2 h to remove adherent cells. Suspension cells were seeded in 96 well plates at 50,000 cells per well and incubated at 37° C., 5% CO2 for 1 h. Splenocytes were pre-treated in triplicate with 10,000 nM curves of Formula 1 compounds for 1 h, followed by stimulation of cell proliferation with 2.5 ug/ml anti-IgM F(ab′)2 (Jackson ImmunoResearch) for 72 h. Cell proliferation was measured by Cell Titer-Glo Luminescent Assay (Promega). EC50 values (50% proliferation in the presence of compound as compared to vehicle treated controls) were calculated from dose response compound curves using GraphPad Prism Software EC50 values are reported in Table 3: […]
On the technique in general: ATP-based viability assays read luminescence as a measure of living cells.

The subject of assay [4] is TMD-8 human activated B cell diffuse large B cell lymphoma cells. Nature of the assay: TMD-8 survival assay. In kind it is cell-based. As to conditions: TMD8, TMD-8 cells, 72 h treatment, Cell Titer-Glo. The method, then:
BTK inhibitors affect the survival of B-cell lymphomas. TMD-8 human activated B cell diffuse large B cell lymphoma cells were seeded in 96-well plates at a density of 20,000 cells/well in HyClone RPMI supplemented with 10% FBS (Fisher)/1% Penicillin/Streptomycin (HyClone) and incubated at 37° C., 5% CO2. Cells were treated in triplicate with 1,000 nM or 100 nM curves of compounds for 72 h. Cell survival was measured by Cell Titer-Glo Luminescent Assay (Promega). EC50 values (50% proliferation in the presence of compound as compared to vehicle treated controls) were calculated from dose response compound curves using GraphPad Prism Software.

T1 sequence (Q06187 whole entry): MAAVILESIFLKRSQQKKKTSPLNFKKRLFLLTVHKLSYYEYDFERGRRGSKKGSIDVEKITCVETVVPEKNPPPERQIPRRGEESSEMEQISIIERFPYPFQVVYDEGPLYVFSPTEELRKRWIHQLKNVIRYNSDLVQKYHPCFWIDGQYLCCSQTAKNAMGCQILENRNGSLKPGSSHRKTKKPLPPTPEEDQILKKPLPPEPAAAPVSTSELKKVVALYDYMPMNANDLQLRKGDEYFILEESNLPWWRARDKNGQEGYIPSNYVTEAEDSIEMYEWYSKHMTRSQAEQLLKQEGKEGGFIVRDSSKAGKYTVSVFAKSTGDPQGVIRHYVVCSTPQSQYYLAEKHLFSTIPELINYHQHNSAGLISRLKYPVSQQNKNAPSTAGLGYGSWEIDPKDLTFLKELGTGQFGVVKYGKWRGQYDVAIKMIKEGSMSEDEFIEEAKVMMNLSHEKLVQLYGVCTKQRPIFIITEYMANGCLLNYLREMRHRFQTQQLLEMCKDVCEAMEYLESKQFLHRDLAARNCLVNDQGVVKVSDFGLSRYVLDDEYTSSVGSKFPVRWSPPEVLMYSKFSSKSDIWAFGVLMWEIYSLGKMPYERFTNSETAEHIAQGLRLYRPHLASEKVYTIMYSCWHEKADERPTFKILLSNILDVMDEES
BTK, sequence (Q06187 whole entry): as above

As to `C=CC(=O)N[C@H]1C[C@@H](n2nc(-c3ccc(Oc4cc(F)cc(OCc5cnc(C)nc5)c4)cc3)c3c(N)ncnc32)C1` [Compound 27], in assay [1], the IC50 – broadly, the concentration that gives 50% inhibition – was 8 nM. Further, the “Residence time half life (1/Kobs)” value in assay [2] is greater than 10 h. The residence time in assay [2] (read-out: Residence time half life (1/Kobs)) is greater than 600 min. Also, the EC50 in assay [3] was 0.8 nM; in assay [4] it was 4.7 nM.
Compound `CC#CC(=O)N1CCC[C@@H]1Cn1nc(-c2ccc(Oc3cc(F)cc(OCc4cnc(C)nc4)c3)cc2)c2c(N)ncnc21` [Compound 5] yielded a half-inhibitory concentration (IC50) in assay [1] of 126 nM. Also, the EC50 came to 7.8 nM in assay [3] and 48.8 nM in assay [4].
On to `Cc1ncc(COc2cc(F)cc(Oc3ccc(-c4nn(C[C@H]5CCCN5C(=O)C5=CCCC5)c5ncnc(N)c45)cc3)c2)cn1` [Compound 2], for which inhibition in assay [1] was half-maximal at 119 nM (IC50). The EC50 in assay [3] and in assay [4] was greater than 100 nM throughout.
In assay [1], `Cc1ncc(COc2cc(F)cc(Oc3ccc(-c4nn([C@@H]5CCCN(C#N)C5)c5ncnc(N)c45)cc3)c2)cn1` [Compound 8] yielded an IC50 of 11 nM. The EC50 in assay [3] came out at 4.6 nM; in assay [4], 13.5 nM.
